System: NMDAR dependant hippocampal LTP
Assay: NMDAR dependant LTP (fEPSP amplitude) induced by weak tetanus, recorded on hippocampal brain slices in vitro with MEA
Type: cell-based, mice
Conditions: mouse hippocampal slices, 10 stimulations at 100 Hz for 0.1 seconds

SMILES	effect on NMDAR dependant hippocampal LTP induced by weak tetanic stimulation (10 micromolar (μM))	effect on NMDAR dependant hippocampal LTP induced by weak tetanic stimulation (15 micromolar)	effect on NMDAR dependant hippocampal LTP induced by weak tetanic stimulation (20 micromolar (μM))	effect on NMDAR dependant hippocampal LTP induced by weak tetanic stimulation (30 micromolar (μM))	effect on NMDAR dependant hippocampal LTP induced by weak tetanic stimulation (40 micromolar)	effect on NMDAR dependant hippocampal LTP induced by weak tetanic stimulation (50 micromolar)
C[N+](C)(C)CCO.[Cl-] [choline chloride, Choline chloride]	did not produce any effect	did not produce any effect	did not produce any effect	significantly enhanced	significantly enhanced	significantly enhanced
CCCCCCCC/C=C\CCCCCCCC(=O)OCC [oleic acid (ethyl ester), Oleic acid ethyl ester]	did not produce any effect	–	significantly enhanced	significantly enhanced	–	–

From patent US20160136192A1, “METHODS AND COMPOSITIONS FOR ENHANCING COGNITIVE PERFORMANCE” (ABBOTT LABORATORIES, priority 2013, published 2016)
